Experimental data as given in US10183039B2, “Methods for the production of collagen IV” (Vanderbilt University, priority 2013, dated 2019).

Legend:
[1] = target: T1, peroxidasin (Mus musculus, UniProt Q3UQ28); test: In vitro basement membrane (uncrosslinked PFHR-9 matrix) reaction with halides and H2O2; type: biochemical
T1 construct: Cultured murine PFHR9 cells synthesize collagen IV networks that contain sulfilimine crosslinks due to the activity of PXDN; endogenous in cells; host or cells: PFHR-9 cells (isolated matrix from KI-treated culture)
T1 sequence (Q3UQ28 24-1475): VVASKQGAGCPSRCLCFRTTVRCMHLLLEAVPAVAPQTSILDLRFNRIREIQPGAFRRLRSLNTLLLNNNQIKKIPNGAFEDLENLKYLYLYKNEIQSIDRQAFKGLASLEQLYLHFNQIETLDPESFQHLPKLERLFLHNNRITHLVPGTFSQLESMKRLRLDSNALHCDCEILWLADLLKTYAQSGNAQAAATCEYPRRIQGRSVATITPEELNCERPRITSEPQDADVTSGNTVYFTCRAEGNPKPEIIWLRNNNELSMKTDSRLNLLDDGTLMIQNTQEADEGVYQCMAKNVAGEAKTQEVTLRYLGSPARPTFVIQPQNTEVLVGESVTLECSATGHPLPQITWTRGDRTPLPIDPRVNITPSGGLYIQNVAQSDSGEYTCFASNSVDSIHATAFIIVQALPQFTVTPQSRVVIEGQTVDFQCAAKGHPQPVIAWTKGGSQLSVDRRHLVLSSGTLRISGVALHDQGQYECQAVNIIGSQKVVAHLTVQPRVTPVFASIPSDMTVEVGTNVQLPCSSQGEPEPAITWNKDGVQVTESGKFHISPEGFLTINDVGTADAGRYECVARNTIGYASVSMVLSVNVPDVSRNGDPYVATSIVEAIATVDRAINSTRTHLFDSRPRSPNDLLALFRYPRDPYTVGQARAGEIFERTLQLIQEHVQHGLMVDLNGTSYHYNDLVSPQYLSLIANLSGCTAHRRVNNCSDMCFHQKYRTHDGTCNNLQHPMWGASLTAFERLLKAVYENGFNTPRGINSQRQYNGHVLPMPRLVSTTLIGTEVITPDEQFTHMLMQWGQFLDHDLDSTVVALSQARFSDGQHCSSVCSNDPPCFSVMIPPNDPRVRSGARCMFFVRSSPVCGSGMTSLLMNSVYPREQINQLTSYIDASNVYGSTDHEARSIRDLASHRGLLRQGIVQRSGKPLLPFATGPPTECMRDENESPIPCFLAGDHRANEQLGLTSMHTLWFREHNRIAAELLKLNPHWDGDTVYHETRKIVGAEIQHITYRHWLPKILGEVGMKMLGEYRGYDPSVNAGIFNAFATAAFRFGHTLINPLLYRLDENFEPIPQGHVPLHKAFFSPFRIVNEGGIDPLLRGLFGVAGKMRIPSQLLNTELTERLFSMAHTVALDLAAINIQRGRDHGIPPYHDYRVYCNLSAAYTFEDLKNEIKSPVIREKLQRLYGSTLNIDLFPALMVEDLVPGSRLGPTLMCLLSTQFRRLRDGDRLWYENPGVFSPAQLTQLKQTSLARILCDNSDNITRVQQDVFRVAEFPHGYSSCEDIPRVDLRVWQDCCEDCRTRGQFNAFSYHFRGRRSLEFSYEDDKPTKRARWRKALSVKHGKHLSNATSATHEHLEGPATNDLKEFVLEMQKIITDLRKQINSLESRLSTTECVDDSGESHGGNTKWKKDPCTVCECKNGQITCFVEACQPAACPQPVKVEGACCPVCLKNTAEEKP
Procedure: (FIG. 8A) Matrix pellets isolated from KI-treated PFHR9 cell culture were extensively washed into 10 mM phosphate buffer (pH 7.4) supplemented with 100 mM KF to maintain ionic strength. Potassium salts of Cl— or Br— were added in indicated amounts. 1 hr reactions at 37° C. were initiated by addition of H2O2 to 1 mM and stopped by freezing at −20° C. Coomassie blue-stained gels after collagenase digestion of the samples and SDS-PAGE (FIG. 8B) Schematic of Br-Free chloride salt purification apparatus and setup. […] Reagent KCl was commercially obtained and unaltered prior to analysis. 100 mM solutions were made with 18MΩ deionized water. (FIG. 8C) Coomassie blue stained gel of collagenase digested PFHR-9 matrix reaction assay. Reaction buffered contained 10 mM phosphate buffer (pH 7.4), 100 mM Br-Free or Commercially obtained reagent grade KCl, as well as 1 mM H2O2 and 200 μM PHG where appropriate. (FIG. 8D) SDS-PAGE and coomassie blue stain of hPXDN (27.25 nM) and NC1 domain (1.3 μM) reaction and subsequent densiometric quantitation of S═N bond formation stiochiometry in response to NaBr addition. hPXDN and PFHR-9 NC1 domain were prepared and purified as described (5), except with all buffers for all purification steps (dialysis, chromatography, gradient ultracentrifugation) made with Br-Free chloride salts. Reactions were run for 10 minutes at 37° C. with 10 μM H2O2 as the terminal oxidant. Dose-response curve run in the presence of 1× Br-Free PBS. Reactions were quenched with 0.2 mg/ml Catalase, 20 mM Methionine, and 1 mM PHG. EC50 value±95% C.I. from two independent experiments with each data point plotted and fit.
Uncrosslinked PFHR9 matrix was extensively washed into 10 mM phosphate buffer (pH 7.4) that was supplemented with 100 mM KF to maintain ionic strength. One hour reactions at 37° C. were initiated by addition of H2O2 to 1 mM and stopped by freezing at −20° C. […] Samples were digested with collagenase at 37° C. overnight and visualized by SDS-PAGE using 12% gels under non-reducing conditions with Coomassie staining.
PFHR-9 cells treated with potassium iodide (1-10 mM) to eliminate NC1 hexamer crosslinks were used for basement membrane isolation. To test halide dependency, the inventors established halide-free conditions by washing extensively (at least five times) with 10 mM sodium phosphate pH 7.4. To try to extract or inactivate endogenous basement membrane peroxidase activity, the inventors extracted the matrix preparation twice with 2M guanidine-Cl, 50 mM Tris-Cl pH 7.5 and 10 mM EDTA-Na pH 8 followed by extensive washing with 1×PBS. Basement membrane was resuspended in the desired buffer with or without cofactors and inhibitors to examine in vitro NC1 crosslinking under various conditions. Basement membranes were collagenase solubilized to delineate collagen IV NC1 sulfilimine crosslink formation with SDS-PAGE and Coomassie blue staining membrane was isolated, washed extensively and resuspended in 1×PBS. Azide (0-10 mM) and 1 mM H2O2 were added and allowed to react for 1 h at 37° C. The matrix was pelleted, washed extensively with 1×PBS and solubilized with 1×PBS plus 2% (w/v) SDS. Solubilized proteins were reacted with 100 μM Tris[(1-benzyl-1H-1,2,3-triazol-4-yl)methyl]amine (Anaspec), 1 mM Tris(2-carboxyethyl)phosphine hydrochloride (ThermoFisher Pierce), 1 mM cupric sulfate and 100 μM biotin alkyne (PEG4 carboxamide-propargyl biotin; Life Technologies) for 1 h at 37° C. Click chemistry reactions were quenched with 1 mM 3′-azido-3′-deoxythymidine (Sigma). For avidin-HRP detection, samples were electrophoresed under reducing conditions, transferred to nitrocellulose membranes and probed with streptavidin-HRP according to manufacturer instructions (ThermoFisher Pierce). To isolate biotinylated proteins, the inventors precipitated click reaction products with two volumes of cold acetone to remove reactants, washed them with 70% (v/v) acetone and then resolubilized them in 1×PBS plus 2% SDS.

[2] = increased salt concentrations (Fairbanks and Burch, 1970); cited from earlier work

For `Cl` [chloride], the “halide concentration permitting enzymatic crosslinking within purified matrix” value [1] was 100 mM, the “S═N bond formation in isolated matrix” value ([1]; 10 mM phosphate pH 7.4, 100 mM KF, 1 mM H2O2, 1 h at 37° C.) was “remained inactive until 100 mM” and the “dimer formation with bromide-free chloride as halide source” value ([1]; 100 mM Br-free chloride salt, 1 mM H2O2, isolated PFHR-9 matrix) was “insufficient for the reaction”. For the same compound, the “halide concentration at which crosslinked dimeric subunits formed” value ([1]; H2O2 added to uncrosslinked basement membrane without other halides (FIG. 3B)) was ~100 mM and the “half-life in the fly” value [2] was ~5 h.
